Among the test systems are SF-539 CNS; CCRF-CEM leukemia; HT29 colon; HCT-15 colon; SK-MEL-28 melanoma; SK-MEL-2 melanoma; SNB-75 CNS.
Assay in all cases: NCI-60 cell line screen, 48 h

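Five compound concentrations were applied to cells in 96-well plates for 48 hours; endpoints were derived by simple linear interpolation of the resulting dose-response curve. GI50 marks 50% less growth. The concentration for full growth arrest is given as TGI.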 A value given as a limit tells only on which side of the number the result lay.

Turning to `C[C@H]1[C@H](C)CC[C@]2(C(=O)O)CCC3(COC(=O)/C=C/c4ccc(O)cc4)C(=CCC4[C@@]5(C)CC[C@H](O)C(C)(C)C5CC[C@]43C)[C@H]12` (some centres not stated), the TGI in the experiment on SF-539 CNS stood at 16.5 µM; with CCRF-CEM leukemia it was 17.3 µM; in the experiment on HT29 colon it was 18.6 µM; in the experiment on HCT-15 colon it was 15.7 µM; in the experiment with SK-MEL-28 melanoma it was 22.9 µM; in the experiment on SK-MEL-2 melanoma, 43.2 µM. The same molecule registered a TGI in the experiment with SNB-75 CNS of 23.8 µM.

On to `O=C(CC1(O)C(=O)Nc2c(Cl)cc(Cl)cc21)c1ccc([N+](=O)[O-])cc1` (configuration not stated), for which the TGI was greater than 68.7 µM with SF-539 CNS; greater than 84.3 µM in the experiment on CCRF-CEM leukemia; greater than 100 µM in the experiment with HT29 colon; greater than 100 µM in the experiment on HCT-15 colon; greater than 59.6 µM in the experiment on SK-MEL-28 melanoma; greater than 100 µM in the experiment with SK-MEL-2 melanoma. The molecule also came in with a TGI in the experiment with SNB-75 CNS greater than 87.6 µM.

Turning to `CCc1cc2c(Nc3ccccc3)c3c(nc2s1)CCCC3`, the TGI is greater than 100 µM in the experiment with SF-539 CNS; greater than 100 µM in the experiment with CCRF-CEM leukemia; greater than 100 µM in the experiment on HCT-15 colon; greater than 100 µM in the experiment on SK-MEL-28 melanoma; greater than 100 µM in the experiment with SK-MEL-2 melanoma; 39.1 µM with SNB-75 CNS.

For `CC(/C=C1\CCC(CN(C)C)C1=O)c1cccc(Br)c1` (configuration not stated), the TGI with SF-539 CNS is 33.3 µM; in the experiment with CCRF-CEM leukemia, 11.4 µM; in the experiment with HT29 colon it was 20.7 µM; with HCT-15 colon it was 34 µM; with SK-MEL-28 melanoma it was 31.5 µM; in the experiment on SK-MEL-2 melanoma, 30.5 µM.

For `Cc1cc(=O)n2c(cc3cccccc32)n1`, the TGI in the experiment with SF-539 CNS, in the experiment with CCRF-CEM leukemia, with HT29 colon, in the experiment with HCT-15 colon, with SK-MEL-28 melanoma and in the experiment on SK-MEL-2 melanoma was greater than 100 µM in each case. This molecule displayed a TGI in the experiment with SNB-75 CNS greater than 100 µM.

Regarding `COc1ccc(C(=O)Nc2ccn(CCOC(=O)c3ccc(OC)cc3)c(=O)n2)cc1`, the TGI in the experiment on SF-539 CNS, in the experiment with CCRF-CEM leukemia, in the experiment on HT29 colon, in the experiment with HCT-15 colon, with SK-MEL-28 melanoma and in the experiment with SK-MEL-2 melanoma was greater than 100 µM throughout. In the experiment on SNB-75 CNS, this molecule returned a TGI greater than 100 µM.

As to `CC(Oc1ccc2c(=O)cc(-c3ccccc3)oc2c1)C(=O)O` (configuration not stated), the TGI in the experiment with SF-539 CNS, with CCRF-CEM leukemia, in the experiment with HT29 colon, with SK-MEL-28 melanoma and with SNB-75 CNS was greater than 100 µM throughout.

In the case of `O=c1oc2c(O)c(O)cc3c(=O)oc4c(O)c(O)cc1c4c23`, the GI50 in the experiment on CCRF-CEM leukemia, in the experiment with HT29 colon and in the experiment on SK-MEL-28 melanoma was greater than 100 µM in each case. Besides, the TGI in the experiment on CCRF-CEM leukemia was greater than 100 µM; with HT29 colon, greater than 100 µM; in the experiment with HCT-15 colon, greater than 100 µM; in the experiment on SK-MEL-28 melanoma, greater than 100 µM; in the experiment on SK-MEL-2 melanoma it was greater than 100 µM; in the experiment on SNB-75 CNS, 90.3 µM.

For the molecule `CC(O)(c1ccc(OCCC[N+](C)(C)C)cc1)C(C)(O)c1ccc(OCCC[N+](C)(C)C)cc1` (configuration not stated), the TGI in the experiment with SF-539 CNS, in the experiment on CCRF-CEM leukemia, in the experiment with HT29 colon, with HCT-15 colon, in the experiment with SK-MEL-28 melanoma and in the experiment with SK-MEL-2 melanoma was greater than 100 µM each time. In the experiment on SNB-75 CNS, this molecule showed a TGI greater than 100 µM.

For the molecule `CC1=C(C(=O)Nc2ccccc2C)C(c2ccccc2O)C(C(=O)Nc2ccccc2C)=C(C)N1`, the TGI in the experiment with SF-539 CNS was 36.5 µM; in the experiment on CCRF-CEM leukemia, greater than 100 µM; with HT29 colon it was 64.3 µM; with HCT-15 colon it was 29.4 µM; in the experiment on SK-MEL-28 melanoma, 59.1 µM; with SK-MEL-2 melanoma, 35.3 µM. This molecule showed a TGI in the experiment on SNB-75 CNS of 65.8 µM.

As to `CSC(=NC(=O)c1ccccc1)SCCSC(=NC(=O)c1ccccc1)SC`, the TGI with SF-539 CNS, with CCRF-CEM leukemia, in the experiment with HT29 colon, in the experiment on HCT-15 colon, in the experiment on SK-MEL-28 melanoma and with SK-MEL-2 melanoma was greater than 100 µM in each case. In addition, in the experiment with SNB-75 CNS, the TGI is greater than 100 µM.

Consider `Nc1nc(N)c(CCCCc2ccccc2)c(/C=C/c2ccc([N+](=O)[O-])cc2)n1`, for which the TGI in the experiment on SF-539 CNS was 5.62 µM; with CCRF-CEM leukemia, 6.01 µM; in the experiment with HT29 colon it was 16.2 µM; in the experiment on HCT-15 colon, 7.09 µM; in the experiment on SK-MEL-28 melanoma, 12.8 µM; in the experiment on SK-MEL-2 melanoma it was 10.8 µM. The molecule further came in with a TGI with SNB-75 CNS of 9.87 µM.

As for `CCCCCCCCC1C(C)c2c([nH]c3ccccc23)C2C(=O)N(c3ccccc3)C(=O)C21` (configuration not stated), the TGI with SF-539 CNS worked out at 32.7 µM; in the experiment on CCRF-CEM leukemia it was 7.09 µM; in the experiment on HT29 colon it was 19.1 µM; in the experiment with HCT-15 colon, 25.6 µM; with SK-MEL-28 melanoma, 34.3 µM; with SK-MEL-2 melanoma, 33.3 µM. This molecule registered a TGI with SNB-75 CNS of 39.9 µM.

Turning to `C=C1CCCC2OC(OC)CCC12` (configuration not stated), the TGI with SF-539 CNS, with CCRF-CEM leukemia, with HT29 colon, with HCT-15 colon, in the experiment with SK-MEL-2 melanoma and in the experiment on SNB-75 CNS was greater than 100 µM throughout.

In the case of `C=C(C)C1CC=C(C)C(O)([C@@]2(O)C[C@H](C(=C)C)CC=C2C)C1` (some centres not stated), the TGI is 42.1 µM in the experiment on SF-539 CNS; 46.3 µM in the experiment with CCRF-CEM leukemia; 37.7 µM in the experiment with HT29 colon; 95.9 µM in the experiment on SK-MEL-28 melanoma; 35.9 µM in the experiment on SK-MEL-2 melanoma; 54.2 µM in the experiment on SNB-75 CNS.

On to `CC1(C)C2=CCCC(=O)[C@@]2(C)CC[C@@H]1O`, for which the TGI with SF-539 CNS, in the experiment on CCRF-CEM leukemia, in the experiment on HT29 colon, in the experiment on SK-MEL-28 melanoma, in the experiment with SK-MEL-2 melanoma and in the experiment on SNB-75 CNS was greater than 100 µM throughout.

On to `CC1(C)C=C(N2CCN(C3=CC(C)(C)NC(C)(C)C3)CC2)CC(C)(C)N1`, for which the TGI with SF-539 CNS, in the experiment on CCRF-CEM leukemia, with HT29 colon, in the experiment with HCT-15 colon, with SK-MEL-28 melanoma and in the experiment on SNB-75 CNS was greater than 100 µM each time.

In the case of `CC(=O)CCn1[nH]c(=O)c(Cl)c(Cl)c1=O`, the TGI with SF-539 CNS, with CCRF-CEM leukemia, in the experiment with HT29 colon, with HCT-15 colon, with SK-MEL-28 melanoma and with SK-MEL-2 melanoma was greater than 100 µM each time. Further, the TGI in the experiment on SNB-75 CNS is greater than 100 µM.

As for `CCCCCCCCCCCCCP(=O)(OC)OC`, the TGI with SF-539 CNS was 30.9 µM; in the experiment with CCRF-CEM leukemia it was 38.8 µM; in the experiment on HT29 colon, 34.1 µM; with HCT-15 colon, 31.6 µM; with SK-MEL-28 melanoma, 39.1 µM; in the experiment with SK-MEL-2 melanoma, 31.3 µM. In the experiment with SNB-75 CNS, this molecule came in with a TGI of 38.1 µM.

For `COC(=O)/C(=N\Nc1nc(=S)[nH]n1N)C(C#N)c1ccc(Cl)cc1` (configuration not stated), the TGI in the experiment with SF-539 CNS, in the experiment on HT29 colon, in the experiment on HCT-15 colon, in the experiment on SK-MEL-28 melanoma, in the experiment with SK-MEL-2 melanoma and in the experiment with SNB-75 CNS was greater than 100 µM throughout.

With `CC(=O)OC(C)(C)C[N+](=O)[O-]`, the TGI in the experiment with SF-539 CNS, in the experiment with CCRF-CEM leukemia, in the experiment with HT29 colon, in the experiment on HCT-15 colon, with SK-MEL-28 melanoma and in the experiment on SK-MEL-2 melanoma was greater than 100 µM each time. Also, the TGI in the experiment on SNB-75 CNS is greater than 100 µM.

With `COC(=O)/C=C(C)/C=C/c1c(C)c(C(C)=O)c(C)n1C`, the TGI in the experiment on SF-539 CNS, in the experiment on CCRF-CEM leukemia, in the experiment on HT29 colon and in the experiment on HCT-15 colon was greater than 100 µM throughout.

For the molecule `Cc1ccc(-c2nc3ccccc3c(=O)n2NC2OC(CO)C(O)C(O)C2O)cc1` (configuration not stated), the TGI in the experiment on SF-539 CNS, in the experiment with CCRF-CEM leukemia, with HT29 colon, in the experiment on HCT-15 colon, in the experiment with SK-MEL-28 melanoma and in the experiment on SK-MEL-2 melanoma was greater than 100 µM in each case. In the experiment with SNB-75 CNS, this molecule showed a TGI greater than 100 µM.

As to `O=C1CS(=O)c2ccccc2N1` (configuration not stated), the TGI with SF-539 CNS, in the experiment with CCRF-CEM leukemia, with HT29 colon, with HCT-15 colon, in the experiment with SK-MEL-28 melanoma and with SK-MEL-2 melanoma was greater than 100 µM each time. Besides, the TGI in the experiment on SNB-75 CNS was greater than 100 µM.

As to `CCN(CC)CCCNc1nccc2c(C)c3[nH]c4ccncc4c(=O)c3cc12`, the TGI in the experiment with SF-539 CNS is 11.2 µM; in the experiment with CCRF-CEM leukemia, 8.44 µM; in the experiment on HT29 colon, 12.8 µM; in the experiment on HCT-15 colon, greater than 100 µM; in the experiment on SK-MEL-28 melanoma, 13.4 µM; in the experiment with SK-MEL-2 melanoma it was 9.34 µM. This molecule also had a TGI in the experiment with SNB-75 CNS of 12.6 µM.

For the molecule `O=C1C(c2ccccc2)=[N+]([O-])c2cc([N+](=O)[O-])ccc21`, the TGI in the experiment on SF-539 CNS was 57.3 µM; with CCRF-CEM leukemia, 40.5 µM; in the experiment on HT29 colon it was 47.9 µM; in the experiment on HCT-15 colon, 56.5 µM; with SK-MEL-28 melanoma it was 48.4 µM; with SK-MEL-2 melanoma, greater than 100 µM. This molecule also gave a TGI in the experiment with SNB-75 CNS greater than 100 µM.

These data come from PubChem BioAssay (NCI).
